Peptide text beside a SMILES is read from it. * marks the point of attachment. Cbz = O=C(OCc1ccccc1)*; Acryloyl = C=CC(=O)*; ClAc = O=C(CCl)*
What was measured:
Transglutaminase [1] = assay: Transglutaminase-catalysed labelling reaction stopped by inhibitor, SDS-PAGE fluorescence (Beispiel 1); format: biochemical; conditions: Zielprotein N,N-Dimethylcasein, stopped after 2, 10 and 20 min, large excess of unbound dye present, transglutaminase only given in an image table
Method: (§1) Alle nachfolgend beschriebenen Experimente wurden nach dem gleichen Standardprotokoll durchgeführt. Dabei werden das jeweilige Zielprotein und das farbstofftragende amin- oder glutaminhaltige Substrat in einem geeigneten Puffer vorgelegt und für 5 Min. auf 37°C temperiert. Anschließend wird durch Zugabe von Transglutaminase die Reaktion gestartet. Nach variierenden Inkubationszeiten, durch die jeweils verschiedene Markierungsgrade erreicht werden, wird durch Zugabe eines Inhibitors die Transglutaminase vollständig und irreversibel inaktiviert (Reaktionsabbruch 1). In Kontrollexperimenten wird die Markierungsreaktion durch Abtrennung des ungebundenen, farbstofftragenden Substrates unterbrochen (Reaktionsabbruch 2). Die Abtrennung des ungebundenen Farbstoffes erfolgt unter Normaldruck über eine PD-10-Säule (Amersham Biosciences). Dieses allgemein einsetzbare Verfahren zur schnellen Abtrennung kleiner Moleküle von Makromolekülen wie Proteinen basiert auf dem Prinzip der Gelpermeationschromatographie und kann als das vorteilhafteste Verfahren zur Reaktionskontrolle nach dem Stand der Technik angesehen werden. Andere Verfahren, mit denen die weitere katalytische Markierungsreaktion abgebrochen werden könnte, sind weniger geeignet oder nicht allgemein einsetzbar (z. B. thermische, unspezifische chemische oder affinitätschromatographische Methoden). […]

Transglutaminase [2] = assay: Transglutaminase-catalysed labelling reaction stopped by inhibitor, SDS-PAGE fluorescence (Beispiel 3); format: biochemical
Method: as §1

[3] = molecular target: T1, bakterielle Transglutaminase (Streptomyces mobaraensis, UniProt P81453); assay: Labelling of recombinant hIRS1-p30-N-K stopped by inhibitor, SDS-PAGE fluorescence (Beispiel 6); format: biochemical
T1 sequence (P81453 77-407): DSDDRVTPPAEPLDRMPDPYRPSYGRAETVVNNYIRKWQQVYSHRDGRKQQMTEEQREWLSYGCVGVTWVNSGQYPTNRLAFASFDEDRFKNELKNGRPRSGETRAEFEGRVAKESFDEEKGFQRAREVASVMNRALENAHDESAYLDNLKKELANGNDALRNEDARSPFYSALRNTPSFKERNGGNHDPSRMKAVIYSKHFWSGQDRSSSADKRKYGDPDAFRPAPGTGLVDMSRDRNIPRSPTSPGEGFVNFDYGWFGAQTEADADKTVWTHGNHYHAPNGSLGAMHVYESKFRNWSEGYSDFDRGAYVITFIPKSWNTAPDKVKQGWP
Method: as §1

[4] = molecular target: T2, Meerschweinchenlebertransglutaminase (Cavia cutleri, UniProt P08587); assay: Labelling of recombinant hLeptin stopped by inhibitor, RP-HPLC (Beispiel 7); format: biochemical, Meerschweinchen
T2 sequence (P08587 2-690 limits assumed): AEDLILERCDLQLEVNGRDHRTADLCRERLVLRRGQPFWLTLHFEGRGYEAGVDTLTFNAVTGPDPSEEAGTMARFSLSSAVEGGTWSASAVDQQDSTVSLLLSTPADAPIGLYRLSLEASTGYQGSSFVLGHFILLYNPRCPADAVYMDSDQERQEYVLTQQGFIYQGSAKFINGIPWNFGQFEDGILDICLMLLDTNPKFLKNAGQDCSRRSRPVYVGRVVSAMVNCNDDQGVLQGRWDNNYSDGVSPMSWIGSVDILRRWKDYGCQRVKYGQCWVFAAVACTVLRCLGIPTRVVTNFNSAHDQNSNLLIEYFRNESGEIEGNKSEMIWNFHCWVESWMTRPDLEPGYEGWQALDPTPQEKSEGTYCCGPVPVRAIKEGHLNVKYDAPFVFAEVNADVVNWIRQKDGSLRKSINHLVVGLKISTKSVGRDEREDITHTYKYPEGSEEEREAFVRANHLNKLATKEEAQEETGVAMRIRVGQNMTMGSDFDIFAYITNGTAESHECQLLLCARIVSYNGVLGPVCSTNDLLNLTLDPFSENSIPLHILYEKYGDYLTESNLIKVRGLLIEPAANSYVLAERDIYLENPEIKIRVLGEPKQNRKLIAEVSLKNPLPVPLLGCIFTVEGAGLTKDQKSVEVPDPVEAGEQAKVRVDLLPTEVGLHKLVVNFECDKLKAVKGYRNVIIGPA
Method: as §1, with “Methoden). Die Gelpermeationschromatographie wurde jeweils so schnell wie technisch machbar durchgeführt. Dazu wird auf die vorkonditionierte PD-10-Säule 2,5 ml des Reaktionsvolumens aufgetragen und die Lösung vollständig in das Trennmaterial eingebracht. Anschließend wird das Protein mit 3,5 ml Puffer eluiert. Die niedermolekularen Substanzen verbleiben auf der Säule. Der Gesamtprozess benötigt eine Zeitspanne von mindestens 3 Minuten. Während dieser Zeit kann Transglutaminase weiter auf das Zielprotein einwirken.” for “Methoden).”

[5] = molecular target: T1, bakterielle Transglutaminase; assay: Labelling of recombinant Concanavalin A stopped by inhibitor, SDS-PAGE fluorescence (Beispiel 4); format: biochemical; conditions: rekombinantes Concanavalin A, stopped after 2 and 5 min, then 30 min RT
Method: as §1

Transglutaminase [6] = assay: Transglutaminase-catalysed labelling reaction stopped by inhibitor, SDS-PAGE fluorescence (Beispiel 5); format: biochemical; conditions: stopped after 2, 5 and 10 min, then 30 min RT
Method: as §1

## CC[C@H](C)[C@H](NC(=O)[C@H](CCC(N)=O)NC(=O)[C@H](CCC(=O)C[S+](C)C)NC(=O)OC(C)(C)C)C(=O)N[C@H](C(=O)OC)C(C)C [Boc-SON-Gln-Ile-Val-OH, N^α-tert.-Butyloxycarbonyl-L-(6-dimethylsulfonium-5-oxonorleucinyl)-L-glutaminyl-L-isoleucinyl-L-valinmethylester]
Transglutaminase [1]
  weitere katalytische Reaktion nach Zugabe des Inhibitors: Eine weitere katalytische Reaktion findet nach Zugabe des Inhibitors nicht statt

## [N-]=[N+]=CC(=O)CC[C@H](NC(=O)OCc1ccccc1)C(=O)NCC(=O)O [Z-DON-Gly-OH, N^α-Benzyloxycarbonyl-L-(6-diazo-5-oxonorleucinyl)glycin]
Transglutaminase [2]; inhibitor removed by gel permeation chromatography, fresh unbound dye added, 30 min RT
  weiteres Labeling des Zielproteins nach Abtrennung des Inhibitors: kein weiteres Labeling des Zielproteins
Transglutaminase [2]; stopped after 5 min, sample directly after inhibitor addition
  Markierungsreaktion nach Zugabe des Inhibitors: wird die Reaktion gestoppt

## COC(=O)[C@H](Cc1ccccc1)NC(=O)[C@H](CCC(=O)C=[N+]=[N-])NC(=O)OCc1ccccc1 [Z-DON-Phe-OMe, N^α-Benzyloxycarbonyl-L-(6-diazo-5-oxonorleucinyl)-L-phenylalaninmethylester]
[3]; dye and inhibitor removed, kept at RT 30 min, 1 h, 2 h, 4 h
  weitere Modifikation des Zielproteins nach Abtrennung von Farbstoff und Inhibitor: keine weitere Modifikation des Zielproteins
[3]; stopped after 5 min
  Inhibition der Transglutaminase: vollständige und irreversible Inhibition der Transglutaminase

## C=CC(=O)NCCCC[C@H](NC(=O)OCc1ccccc1)C(=O)NCC(=O)O [Z-Lys(Acryloylamid)-Gly-OH, N^α-Benzyloxycarbonyl-L-lysinyl(ε-acryloyl)glycin] (Cbz-Lys(Acryloyl)-Gly-OH)
[4]; stopped after 5 min
  Inaktivierung der Meerschweinchenlebertransglutaminase: inaktiviert Meerschweinchenlebertransglutaminase vollständig
[4]; stopped after 5 min, then 30 and 60 min RT
  weitere Labeling- und Quervernetzungsreaktionen: keine weitere Labeling- und Quervernetzungsreaktionen
[4]; storage 10 days at -20°C, then one hour RT
  weitere enzymatische Reaktionen nach Lagerung: keine weiteren enzymatischen Reaktionen mehr

## COC(=O)[C@H](Cc1ccccc1)NC(=O)[C@H](CCC(=O)C[S+](C)C)NC(=O)OCc1ccccc1 [Z-SON-Phe-OMe, Nα-Benzyloxycarbonyl-L-(6-dimethylsulfonium-5-oxonorleucinyl)phenylalaninmethylester]
[5]
  weitere Markierungsreaktion nach Inhibitorzugabe: keine weitere Markierungsreaktion mehr

## O=C(O)CNC(=O)[C@H](COC(=O)CCl)NC(=O)OCc1ccccc1 [Z-Ser(OAcCl)-Gly-OH, N^α-Benzyloxycarbonyl-L-serinyl(O-chloracetyl)glycin] (Cbz-Ser(ClAc)-Gly-OH)
Transglutaminase [6]
  weitere Markierungsreaktionen nach Inhibitorzugabe: keine weiteren Markierungsreaktionen mehr

From patent EP1600504A1, “Control of transglutaminase catalyzed protein modification by selective irreversible transglutaminase inhibitors” (N-Zyme BioTec GmbH, priority 2004, dated 2005)
